According to PubChem BioAssay (NCI):
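The compound was tested at five concentrations on cells cultured in 96-well plates, with a 48-hour exposure period. TGI denotes the concentration required for complete inhibition of growth.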

How the values were obtained:
Assay in all cases: NCI tumour cell line growth inhibition, 48 h
[1] = test system: A498 renal
[2] = test system: K-562 leukemia
[3] = test system: DU-145 prostate
[4] = test system: BT-549 breast
[5] = test system: ACHN renal
[6] = test system: OVCAR-5 ovarian
[7] = test system: HCT-15 colon
[8] = test system: NCI-H226 lung
[9] = test system: UACC-257 melanoma
[10] = test system: HCC-2998 colon

Structure (SMILES)	TGI [1]	TGI [2]	TGI [3]	TGI [4]	TGI [5]	TGI [6]	TGI [7]	TGI [8]	TGI [9]	TGI [10]
O=[N+]([O-])c1ccc(-[n+]2ccc3ccccc3c2)c([N+](=O)[O-])c1	28 µM	> 23.2 µM	27.8 µM	13.5 µM	4.44 µM	23.9 µM	3.65 µM	43.6 µM	4.08 µM	26.7 µM
Cc1nc2ccccc2cc1C[N+]12CN3CN(CN(C3)C1)C2	47.8 µM	> 100 µM	82.1 µM	40 µM	38.5 µM	57.8 µM	47 µM	52.8 µM	35.5 µM	30.8 µM
C=C1[C@H](OCC(C)C)[C@@H](OC(=O)C(C)CC)[C@@H](O)C(C)(C)/C=C/[C@H](C)C(=O)[C@@]2(O)C[C@H](C)[C@H](O)[C@@H]2[C@H]1OC(=O)C(C)CC (stereo not given in full)	12.2 µM	> 13.5 µM	> 20 µM	> 20 µM	> 13 µM	> 17.7 µM	> 20 µM	> 20 µM	> 14.1 µM	> 9.84 µM
Cc1nc(N)nc(N)c1N1CCN(Cc2ccccc2)CC1	> 100 µM	> 100 µM	> 100 µM	> 100 µM	> 100 µM	> 100 µM	> 100 µM	> 100 µM	> 100 µM	> 100 µM
O=C(CCC(=O)OCC1OC(O)(CC2OC(CO)C(O)C(O)C2O)C(O)C1O)OCc1ccccc1 (stereo not given)	> 100 µM	> 100 µM	> 100 µM	> 100 µM	> 100 µM	> 100 µM	> 100 µM	> 100 µM	> 100 µM	> 100 µM
CCOC(=O)/C=C(/C(=O)OCC)n1ccc(=O)[nH]c1=O	38.2 µM	6.55 µM	29 µM	24.9 µM	14.6 µM	14.4 µM	9.39 µM	14.5 µM	25.2 µM	32.3 µM
O=Cc1cc(O)c(O)c(/C=N/n2c3ccccc3c3ccccc32)c1	49.8 µM	26.7 µM	49 µM	12.4 µM	21.1 µM	49 µM	19.4 µM	33.2 µM	27.9 µM	30.9 µM
N#CI1OC(C(F)(F)F)(C(F)(F)F)c2ccccc21	> 100 µM	> 100 µM	38.4 µM	40.9 µM	36.9 µM	36.6 µM	32.6 µM	49 µM	51.8 µM	36.1 µM
CCOC(=O)CCC(NC(=O)c1ccc(NCc2ccc3nc(-c4ccccc4)c(Cl)nc3c2)c2ccccc12)C(=O)OCC (stereo not given)	> 100 µM	> 100 µM	> 100 µM	> 100 µM	> 100 µM	> 100 µM	> 100 µM	> 100 µM	61.5 µM	> 100 µM
CSc1nc(=O)c(C#N)c(-c2ccccc2)n1C1OC(COC(C)=O)C(OC(C)=O)C(OC(C)=O)C1OC(C)=O (stereo not given)	> 100 µM	> 100 µM	> 100 µM	> 100 µM	> 100 µM	> 100 µM	> 100 µM	> 100 µM	> 100 µM	> 100 µM
Cc1nc2sccn2c1C(=O)OCCOCCOCCOCCOC(=O)c1c(C)nc2sccn12	> 100 µM	> 100 µM	> 100 µM	> 100 µM	> 100 µM	> 100 µM	> 100 µM	> 100 µM	> 100 µM	> 100 µM
Cc1ccnc2sc3ccccc3c(=O)c12	> 100 µM	> 100 µM	> 100 µM	> 100 µM	> 100 µM	> 100 µM	> 100 µM	> 100 µM	> 100 µM	> 100 µM
CCOC(=O)c1ccc(NC(NC(=O)CC)(C(F)(F)F)C(F)(F)F)cc1	> 100 µM	> 100 µM	> 100 µM	> 100 µM	> 100 µM	> 100 µM	> 100 µM	> 100 µM	> 100 µM	> 100 µM
CN(C)/C=N/S(=O)(=O)c1nn2c(C=O)c(-c3cc4ccccc4oc3=O)nc2s1	55.3 µM	> 24.4 µM	> 36.6 µM	33.1 µM	5.9 µM	> 84.3 µM	27.6 µM	> 56.5 µM	29.3 µM	48.5 µM
Nc1ccc(-c2nc3cc(F)ccc3s2)cc1	> 100 µM	> 100 µM	> 100 µM	> 100 µM	> 61.7 µM	> 92.8 µM	> 85.7 µM	> 100 µM	> 100 µM	> 100 µM
CCOC(=O)C1=CN(C(=O)c2ccccc2)CCC1Cc1ccccc1 (stereo not given)	39.4 µM	77.3 µM	> 100 µM	85.9 µM	63.6 µM	> 100 µM	> 100 µM	> 100 µM	34.3 µM	38.5 µM
